system: Wnt; assay: Wnt reporter screening assay: SP5 promoter (TCF/LEF) firefly luciferase in SW480 cells; type: cell-based; details: Homo sapiens; SW480 colon cancer cells with SP5 promoter luciferase reporter; 24 hours after compound addition; normalized to DMSO; read-out: Wnt inhibition, IC50
Description: Another screening assay for Wnt activity is described as follows. Reporter cell lines can be generated by stably transducing cells of cancer cell lines (e.g., colon cancer) with a lentiviral construct that include a wnt-responsive promoter driving expression of the firefly luciferase gene.
Lentiviral constructs can be made in which the SP5 promoter, a promoter having eight TCF/LEF binding sites derived from the SP5 promoter, is linked upstream of the firefly luciferase gene. The lentiviral constructs can also include a hygromycin resistance gene as a selectable marker. The SP5 promoter construct can be used to transduce SW480 cells, a colon cancer cell line having a mutated APC gene that generates a truncated APC protein, leading to de-regulated accumulation of β-catenin.
Cultured SW480 cells bearing a reporter construct can be distributed at approximately 10,000 cells per well into 384 well multiwell plates. Compounds from a small molecule compound library can then be added to the wells in half-log dilutions using a three micromolar top concentration. A series of control wells for each cell type receive only buffer and compound solvent. Twenty-four hours after the addition of compound, reporter activity for luciferases can be assayed, for example, by addition of the BrightGlo luminescence reagent (Promega) and the Victor3 plate reader (Perkin Elmer). Readings can be normalized to DMSO only treated cells, and normalized activities can then be used in the IC50 calculations.

Point of comparison: `Cc1cc(C)cc(-c2ccc3c(NC(=O)NCC4CC4)n[nH]c3c2)c1` [Compound 48], IC50 390 nM. Against it:
- CCC(CC)NC(=O)c1ccc2[nH]nc(-c3nc4ccccc4[nH]3)c2c1 [Compound 1, 3-(1H-benzo[d]imidazol-2-yl)-N-(pentan-3-yl)-1H-indazole-5-carboxamide] — lower, 200 to 310 nM
- O=C(NC1CCCN(S(=O)(=O)c2ccccc2F)C1)c1ccc2[nH]nc(-c3nc4ccccc4[nH]3)c2c1 (stereo not drawn) [Compound 2] — within 1.5-fold, 500 nM
- CN1CCC(CNC(=O)c2ccc3[nH]nc(-c4nc5ccccc5[nH]4)c3c2)C1 (stereo not drawn) [Compound 3] — within 1.5-fold, 580 nM
- O=C(NC1Cc2ccccc2C1)c1ccc2[nH]nc(-c3nc4ccccc4[nH]3)c2c1 [Compound 4] — 1.5-fold higher, 600 nM
- CN1CCCCC1CNC(=O)c1ccc2[nH]nc(-c3nc4ccccc4[nH]3)c2c1 (stereo not drawn) [Compound 5] — 1.6-fold higher, 630 nM
- CS(=O)(=O)N1CCCC(NC(=O)c2ccc3[nH]nc(-c4nc5ccccc5[nH]4)c3c2)C1 (stereo not drawn) [Compound 7] — 2.1-fold higher, 800 nM
- CC(C)CC(=O)N1CC2CC1CN2C(=O)c1ccc2[nH]nc(-c3nc4ccccc4[nH]3)c2c1 (stereo not drawn) [Compound 8] — 2.4-fold higher, 930 nM
- O=C(NC1CCCN(S(=O)(=O)c2cccc(F)c2)C1)c1ccc2[nH]nc(-c3nc4ccccc4[nH]3)c2c1 (stereo not drawn) [Compound 9] — 2.6-fold higher, 1000 nM
- O=C(NC1CCc2ccccc21)c1ccc2[nH]nc(-c3nc4ccccc4[nH]3)c2c1 (stereo not drawn) [Compound 10] — 2.6-fold higher, 1000 nM
- COc1ccc(S(=O)(=O)N2CCCC(NC(=O)c3ccc4[nH]nc(-c5nc6ccccc6[nH]5)c4c3)C2)cc1 (stereo not drawn) [Compound 11] — 3.3-fold higher, 1300 nM
- O=C(NCC1(O)CCCCC1)c1ccc2[nH]nc(-c3nc4ccccc4[nH]3)c2c1 [Compound 12] — 4.1-fold higher, 1600 nM
- CS(=O)(=O)N1CCCC(CNC(=O)c2ccc3[nH]nc(-c4nc5ccccc5[nH]4)c3c2)C1 (stereo not drawn) [Compound 13] — 4.6-fold higher, 1800 nM
- Cc1ccccc1OC1CCN(C(=O)c2ccc3[nH]nc(-c4nc5ccccc5[nH]4)c3c2)C1 (stereo not drawn) [Compound 14] — 4.9-fold higher, 1900 nM
- Cc1ccccc1C1CCCN1C(=O)c1ccc2[nH]nc(-c3nc4ccccc4[nH]3)c2c1 (stereo not drawn) [Compound 15] — 7.7-fold higher, 3000 nM
- O=C(c1ccc2[nH]nc(-c3nc4ccccc4[nH]3)c2c1)N1CCCC1c1ccccc1 (stereo not drawn) [Compound 16] — 7.9-fold higher, 3100 nM
- CC[C@H](C)[C@@H](CO)NC(=O)c1ccc2[nH]nc(-c3nc4ccccc4[nH]3)c2c1 [Compound 17] — 1.9-fold higher, 750 nM
- Cc1ccccc1O[C@@H]1CCN(C(=O)c2ccc3[nH]nc(-c4nc5ccccc5[nH]4)c3c2)C1 [Compound 18] — 4.9-fold higher, 1900 nM
- O=C(NC1CCN(Cc2ccccc2)CC1)c1ccc2[nH]nc(-c3nc4ccccc4[nH]3)c2c1 [Compound 19, 3-(1H-benzo[d]imidazol-2-yl)-N-(1-benzylpiperidin-4-yl)-1H-indazole-5-carboxamide] — not separable, 330 to 400 nM
- O=C(c1ccc2[nH]nc(-c3nc4ccccc4[nH]3)c2c1)N1CCCC1 [Compound 20, (3-(1H-benzo[d]imidazol-2-yl)-1H-indazol-5-yl)(pyrrolidin-1-yl)methanone] — 1.6-fold higher, 606 nM
- Cc1ccc(CN2CCN(C(=O)c3ccc4[nH]nc(-c5nc6ccccc6[nH]5)c4c3)CC2)cc1 [Compound 21, (3-(1H-benzo[d]imidazol-2-yl)-1H-indazol-5-yl)(4-(4-methylbenzyl)piperazin-1-yl)methanone] — 14-fold higher, 5300 nM
- CN1CCCN(C(=O)c2ccc3[nH]nc(-c4nc5ccccc5[nH]4)c3c2)CC1 [Compound 22, (3-(1H-benzo[d]imidazol-2-yl)-1H-indazol-5-yl)(4-methyl-1,4-diazepan-1-yl)methanone] — 4.7-fold higher, 1850 nM
- O=C(c1ccc2[nH]nc(-c3nc4ccccc4[nH]3)c2c1)N1CCOCC1 [Compound 23, (3-(1H-benzo[d]imidazol-2-yl)-1H-indazol-5-yl)(morpholino) methanone] — higher, > 10000 nM
- O=C(c1ccc2[nH]nc(-c3nc4ccccc4[nH]3)c2c1)N1CCSCC1 [Compound 24, (3-(1H-benzo[d]imidazol-2-yl)-1H-indazol-5-yl)(thiomorpholino)methanone] — 21-fold higher, 8000 nM
- CN1CCN(C(=O)c2ccc3[nH]nc(-c4nc5ccccc5[nH]4)c3c2)CC1 [Compound 25, [3-(1H-benzimidazol-2-yl)-1H-indazole-5-yl]-(4-methyl-piperazin-1-yl)-methanone] — higher, > 10000 nM
- O=C(c1ccc2[nH]nc(-c3nc4ccccc4[nH]3)c2c1)N1CCCCC1 [Compound 26, (3-(1H-benzo[d]imidazol-2-yl)-1H-indazol-5-yl)(piperidin-1-yl)methanone] — higher, > 10000 nM
- N#Cc1ccc2[nH]nc(-c3nc4ccccc4[nH]3)c2c1 [Compound 27, 3-(1H-benzo[d]imidazol-2-yl)-1H-indazole-5-carbonitrile] — higher, > 10000 nM
- NC(=O)c1ccc2[nH]nc(-c3nc4ccccc4[nH]3)c2c1 [Compound 28, 3-(1H-benzo[d]imidazol-2-yl)-1H-indazole-5-carboxamide] — 2.6-fold higher, 1000 nM
- O=C(O)c1ccc2[nH]nc(-c3nc4ccccc4[nH]3)c2c1 [Compound 29, 3-(1H-benzimidazol-2-yl)-1H-indazole-5-carboxylic acid] — higher, > 10000 nM
- CN(C)C(=O)c1ccc2[nH]nc(-c3nc4ccccc4[nH]3)c2c1 [Compound 30, 3-(1H-benzo[d]imidazol-2-yl)-N,N-dimethyl-1H-indazole-5-carboxamide] — 5.1-fold higher, 2000 nM
- CCNCc1cncc(-c2ccc3[nH]nc(-c4nc5ccccc5[nH]4)c3c2)c1C [Compound 31, N-((5-(3-(1H-benzo[d]imidazol-2-yl)-1H-indazol-5-yl)-4-methylpyridin-3-yl)methyl)ethanamine] — 1.6-fold lower, 243 nM
- CCNCc1cncc(-c2ccc3[nH]nc(-c4nc5c(-n6cnc(C)c6)cccc5[nH]4)c3c2)c1C [Compound 32, N-((4-methyl-5-(3-(4-(4-methyl-1H-imidazol-1-yl)-1H-benzo[d]imidazol-2-yl)-1H-indazol-5-yl)pyridin-3-yl)methyl)ethanamine] — lower, 40 to 63 nM
- CCNCc1cncc(-c2ccc3[nH]nc(-c4nc5ccc(COC)cc5[nH]4)c3c2)c1C [Compound 33] — 1.7-fold higher, 680 nM
- Cc1cn(-c2cccc3[nH]c(-c4n[nH]c5ccc(-c6cnccc6C)cc45)nc23)cn1 [Compound 34, 3-(4-(4-methyl-1H-imidazol-1-yl)-1H-benzo[d]imidazol-2-yl)-5-(4-methylpyridin-3-yl)-1H-indazole] — lower, 10 to 46 nM
- CCNCc1cncc(-c2ccc3[nH]nc(-c4nc5c(N6CCCCC6)cccc5[nH]4)c3c2)c1C [Compound 35, N-((4-methyl-5-(3-(4-(piperidin-1-yl)-1H-benzo[d]imidazol-2-yl)-1H-indazol-5-yl)pyridin-3-yl)methyl)ethanamine] — lower, 147 to 243 nM
- CCNCc1cncc(-c2ccc3[nH]nc(-c4nc5c(N6CCCC6)cccc5[nH]4)c3c2)c1C [Compound 36, N-((4-methyl-5-(3-(4-(pyrrolidin-1-yl)-1H-benzo[d]imidazol-2-yl)-1H-indazol-5-yl)pyridin-3-yl)methyl)ethanamine] — 1.9-fold higher, 750 nM
- CCNCc1cncc(-c2ccc3[nH]nc(-c4nc5c(-c6cccnc6)cccc5[nH]4)c3c2)c1C [Compound 37, N-((4-methyl-5-(3-(4-(pyridin-3-yl)-1H-benzo[d]imidazol-2-yl)-1H-indazol-5-yl)pyridin-3-yl)methyl)ethanamine] — lower, 200 to 240 nM
- CCNCc1cncc(-c2ccc3[nH]nc(-c4nc5ccccc5[nH]4)c3c2)c1 [Compound 38, N-((5-(3-(1H-benzo[d]imidazol-2-yl)-1H-indazol-5-yl)pyridin-3-yl)methyl)ethanamine] — lower, 124 to 235 nM
- CCNCc1cncc(-c2ccc3[nH]nc(-c4nc5c(-c6ccccc6)cccc5[nH]4)c3c2)c1C [Compound 39, N-((4-methyl-5-(3-(4-phenyl-1H-benzo[d]imidazol-2-yl)-1H-indazol-5-yl)pyridin-3-yl)methyl)ethanamine] — higher, 690 to 730 nM
- CCNCc1cncc(-c2ccc3[nH]nc(-c4nc5c(-c6cccc(C)c6)cccc5[nH]4)c3c2)c1C [Compound 40, N-((4-methyl-5-(3-(4-m-tolyl-1H-benzo[d]imidazol-2-yl)-1H-indazol-5-yl)pyridin-3-yl)methyl)ethanamine] — higher, 670 to 860 nM
- CCNCc1cncc(-c2ccc3[nH]nc(-c4nc5c(-c6ccc(C)cc6)cccc5[nH]4)c3c2)c1C [Compound 41, N-((4-methyl-5-(3-(4-p-tolyl-1H-benzo[d]imidazol-2-yl)-1H-indazol-5-yl)pyridin-3-yl)methyl)ethanamine] — not separable, 330 to 470 nM
- CCNCc1cncc(-c2ccc3[nH]nc(-c4nc5c(-c6ccccc6C)cccc5[nH]4)c3c2)c1C [Compound 42, N-((4-methyl-5-(3-(4-o-tolyl-1H-benzo[d]imidazol-2-yl)-1H-indazol-5-yl)pyridin-3-yl)methyl)ethanamine] — higher, 2500 to 3600 nM
- CCNC(=O)c1cncc(-c2ccc3[nH]nc(-c4nc5ccccc5[nH]4)c3c2)c1 [Compound 44, 5-(3-(1H-benzo[d]imidazol-2-yl)-1H-indazol-5-yl)-N-ethyl nicotinamide] — higher, 960 to 1560 nM
- O=C(NCc1ccccc1)c1cncc(-c2ccc3[nH]nc(-c4nc5ccccc5[nH]4)c3c2)c1 [Compound 45, 5-(3-(1H-benzo[d]imidazol-2-yl)-1H-indazol-5-yl)-N-benzylnicotinamide] — higher, 1230 to 2280 nM
- Cc1ccc(-n2nc(C(N)=O)c3ccc4[nH]ncc4c32)cc1 [Compound 123] — 3.1-fold higher, 1220 nM

— US20110034441A1, “INDAZOLES AS WNT/B-CATENIN SIGNALING PATHWAY INHIBITORS AND THERAPEUTIC USES THEREOF” (EPITHERIX, LLC, priority 2009, published 2011)
